# Laboratory results: patent US6465647B1, “Oxygen, sulfur and nitrogen substituted cyclohexene and cyclohexane derivatives having retinoid-like biological activity” (Allergan, Inc., priority 1999, dated 2002)
# System: ornithine decarboxylase (ODC)
# Assay: Ornithine decarboxylase (ODC) assay: inhibition of TPA induction of ODC activity
# Type: biochemical
# Details: concentration of the test compound which causes 60% inhibition in the ODC assay (TPA-induced ODC activity)
# Description: A classic measure of retinoic acid activity involves measuring the effects of retinoic acid on ornithine decarboxylase. The original work on the correlation between retinoic acid and a decrease in cell proliferation was done by Verma & Boutwell, Cancer Research, 1977, 37, 2196-2201. That reference discloses that ornithine decarboxylase (ODC) activity increased precedent to polyamine biosynthesis. It has been established elsewhere that increases in polyamine synthesis can be correlated or associated with cellular proliferation. Thus, if ODC activity could be inhibited, cell hyperproliferation could be modulated. Although all cases for ODC activity increases are unknown, it is known that 12-0-tetradecanoylphorbol-13-acetate (TPA) induces ODC activity. Retinoic acid inhibits this induction of ODC activity by TPA. […] “IC60” is that concentration of the test compound which causes 60% inhibition in the ODC assay. By analogy, “IC80”, for example, is that concentration of the test compound which causes 80% inhibition in the ODC assay.
# Table 1 discloses the activity of certain exemplary compounds of the invention in the above-described oinithine decarboxylase (ODC) assay.
row,IC60 [nM],Structure (SMILES)
1,0.52,"CCOC(=O)c1ccc(C#C/C=C/C2=C(C)CCCC2OC(C)=O)cc1 (single isomer, unassigned) [Compound 3a, Ethyl (−)-(E)-4-(4-(6-Acetyloxy-2-methylcyclohex-1-enyl)but-3-en-1-ynyl)benzoate]"
2,4.3,"CCOC(=O)c1ccc(C#C/C=C/C2=C(C)CCCC2OC(C)=O)cc1 (single isomer, unassigned) [Compound 3b, Ethyl (+)-(E)-4-(4-(6-Acetyloxy-2-methylcyclohex-1-enyl)but3-en-1-ynyl)benzoate]"
3,5.1,"CCOC(=O)c1ccc(C#C/C=C/C2=C(C)CCCC2OC(=O)C(C)(C)C)cc1 (single isomer, unassigned) [Compound 6a, Ethyl (−)-(E)-4-(4-(6-(2,2-Dimethylpropanoyl)oxy-2-methylcyclohex-1-enyl)but-3-ene-1-ynyl)benzoate]"
4,124,"CCOC(=O)c1ccc(C#C/C=C/C2=C(C)CCCC2OC(=O)C(C)(C)C)cc1 (single isomer, unassigned) [Compound 6b, Ethyl (+)-(E)-4-(4-(6-(2,2-Dimethylpropanoyl)oxy-2-methylcyclohex-1-enyl)but-3-ene-1-ynyl)benzoate]"
5,20.9,"CCOC(=O)c1ccc(C#C/C=C/C2=C(C)CCCC2OC(=O)CC)cc1 (stereo not drawn) [Compound 4a, Ethyl (−)-(E)-4-(4-(6-Propionyloxy-2-methylcyclohex-1-enyl)but-3-en-1-ynyl)benzoate]"
6,234,"CCOC(=O)c1ccc(C#C/C=C/C2=C(C)CCCC2OC(=O)C(C)C)cc1 (stereo not drawn) [Compound 5b, Ethyl (+)-(E)-4-(4-(6-iso-Butyryloxy-2-methyicyclohex-1-enyl)but-3-ene-1-ynyl)benzoate]"
7,8.6,"CCOC(=O)c1ccc(C#C/C=C/C2=C(C)CCCC2OC(=O)c2ccccc2)cc1 (stereo not drawn) [Compound 7a, Ethyl (−)-(E)-4-(4-(6-Benzoyloxy-2-methylcyclohex-1-enyl)but-3-ene-1-ynyl)benzoate]"
8,2.4,CCOC(=O)c1ccc(C#CC=CC2=C(C)CCCC2=NOC)cc1 [Compound 10]
9,10.3,CCOC(=O)c1ccc(C#CC=CC2=C(C)CCCC2=NOCc2ccccc2)cc1 [Compound 11]
10,7.8,"CCOC(=O)C=C1CCCC(C)=C1C=CC#Cc1ccc(C(=O)OCC)cc1 [Compound 12, Ethyl 4-(4-(6-Ethoxycarbonylmethylene-2-methylcyclohex-1-enyl)but-3-en-1-ynyl)benzoate]"

# Same assay, conditions: concentration of the test compound which causes 60% inhibition in the ODC assay (TPA-induced ODC activity); listed as Sa
row,IC60 [nM],Structure (SMILES)
1,15.7,"CCOC(=O)c1ccc(C#C/C=C/C2=C(C)CCCC2OC(=O)C(C)C)cc1 (stereo not drawn) [Compound 5a, Ethyl (−)-(E)-4-(4-(6-iso-Butyryloxy-2-methylcyclohex-1-enyl)but-3-ene-1-ynyl)benzoate]"
